Measured values: the NIST ThermoML archive (doi:10.1021/je8008073)
± gives the expanded uncertainty stated by the source.

Assay: wn = mass fraction of the nth substance listed
Conditions: Liquid; for mass density: Vibrating tube method; for viscosity: Falling or rolling sphere viscometry

c1ccc2c(c1)CCCC2 [1,2,3,4-tetrahydronaphthalene] + CCCCCCCCCCCC
Conditions | mass density [kg/m3] | viscosity [mPa·s]
293.15 K, 100 kPa, w2 = 0.5 | 844.4 ± 1 | –
293.15 K, 2000 kPa, w2 = 0.5 | 845.7 ± 1 | –
293.15 K, 4000 kPa, w2 = 0.5 | 846.8 ± 1 | –
293.15 K, 6000 kPa, w2 = 0.5 | 848 ± 1 | –
293.15 K, 8000 kPa, w2 = 0.5 | 849.5 ± 1 | –
293.15 K, 10000 kPa, w2 = 0.5 | 850.8 ± 1 | –
293.15 K, 12000 kPa, w2 = 0.5 | 851.9 ± 1 | –
293.15 K, 14000 kPa, w2 = 0.5 | 853.1 ± 1 | –
293.15 K, 16000 kPa, w2 = 0.5 | 854.2 ± 1 | –
293.15 K, 18000 kPa, w2 = 0.5 | 855.4 ± 1 | –
293.15 K, 20000 kPa, w2 = 0.5 | 856.6 ± 1.1 | –
295.65 K, 100 kPa, w2 = 0.5 | 842.4 ± 1 | –
295.65 K, 2000 kPa, w2 = 0.5 | 843.6 ± 1 | –
295.65 K, 4000 kPa, w2 = 0.5 | 844.9 ± 1 | –
295.65 K, 6000 kPa, w2 = 0.5 | 846 ± 1 | –
295.65 K, 8000 kPa, w2 = 0.5 | 847.4 ± 1 | –
295.65 K, 10000 kPa, w2 = 0.5 | 848.6 ± 1 | –
295.65 K, 12000 kPa, w2 = 0.5 | 849.8 ± 1 | –
295.65 K, 14000 kPa, w2 = 0.5 | 851 ± 1 | –
295.65 K, 16000 kPa, w2 = 0.5 | 852.1 ± 1 | –
295.65 K, 18000 kPa, w2 = 0.5 | 853.3 ± 1 | –
295.65 K, 20000 kPa, w2 = 0.5 | 854.4 ± 1.1 | –
298.15 K, 100 kPa, w1 = 0.48 | 835.7 ± 1 | –
298.15 K, 100 kPa, w1 = 0.49 | 838.4 ± 1 | –
298.15 K, 100 kPa, w1 = 0.5 | 840.7 ± 1 | –
298.15 K, 100 kPa, w1 = 0.51 | 842.7 ± 1 | –
298.15 K, 100 kPa, w1 = 0.52 | 844.8 ± 1 | –
298.15 K, 100 kPa, w2 = 0.5 | 840.7 ± 1 | 1.46 ± 0.06
298.15 K, 2000 kPa, w1 = 0.48 | 836.9 ± 1 | –
298.15 K, 2000 kPa, w1 = 0.49 | 839.7 ± 1 | –
298.15 K, 2000 kPa, w1 = 0.5 | 842 ± 1 | –
298.15 K, 2000 kPa, w1 = 0.51 | 844 ± 1 | –
298.15 K, 2000 kPa, w1 = 0.52 | 846.1 ± 1 | –
298.15 K, 2000 kPa, w2 = 0.5 | 842 ± 1 | –
298.15 K, 4000 kPa, w1 = 0.48 | 838.3 ± 1 | –
298.15 K, 4000 kPa, w1 = 0.49 | 841 ± 1 | –
298.15 K, 4000 kPa, w1 = 0.5 | 843.4 ± 1 | –
298.15 K, 4000 kPa, w1 = 0.51 | 845.3 ± 1 | –
298.15 K, 4000 kPa, w1 = 0.52 | 847.5 ± 1 | –
298.15 K, 4000 kPa, w2 = 0.5 | 843.4 ± 1 | 1.53 ± 0.06
298.15 K, 6000 kPa, w1 = 0.48 | 839.6 ± 1 | –
298.15 K, 6000 kPa, w1 = 0.49 | 842.2 ± 1 | –
298.15 K, 6000 kPa, w1 = 0.5 | 844.7 ± 1 | –
298.15 K, 6000 kPa, w1 = 0.51 | 846.5 ± 1 | –
298.15 K, 6000 kPa, w1 = 0.52 | 848.7 ± 1 | –
298.15 K, 6000 kPa, w2 = 0.5 | 844.7 ± 1 | –
298.15 K, 8000 kPa, w1 = 0.48 | 840.9 ± 1 | –
298.15 K, 8000 kPa, w1 = 0.49 | 843.5 ± 1 | –
298.15 K, 8000 kPa, w1 = 0.5 | 845.9 ± 1 | –
298.15 K, 8000 kPa, w1 = 0.51 | 847.8 ± 1 | –
298.15 K, 8000 kPa, w1 = 0.52 | 849.9 ± 1 | –
298.15 K, 8000 kPa, w2 = 0.5 | 845.9 ± 1 | –
298.15 K, 10000 kPa, w1 = 0.48 | 842.1 ± 1 | –
298.15 K, 10000 kPa, w1 = 0.49 | 844.7 ± 1 | –
298.15 K, 10000 kPa, w1 = 0.5 | 847.1 ± 1 | –
298.15 K, 10000 kPa, w1 = 0.51 | 848.8 ± 1 | –
298.15 K, 10000 kPa, w1 = 0.52 | 851.1 ± 1 | –
298.15 K, 10000 kPa, w2 = 0.5 | 847.1 ± 1 | 1.64 ± 0.07
298.15 K, 12000 kPa, w1 = 0.48 | 843.3 ± 1 | –
298.15 K, 12000 kPa, w1 = 0.49 | 845.9 ± 1 | –
298.15 K, 12000 kPa, w1 = 0.5 | 848.4 ± 1 | –
298.15 K, 12000 kPa, w1 = 0.51 | 850.3 ± 1 | –
298.15 K, 12000 kPa, w1 = 0.52 | 852.2 ± 1 | –
298.15 K, 12000 kPa, w2 = 0.5 | 848.4 ± 1 | –
298.15 K, 14000 kPa, w1 = 0.48 | 844.6 ± 1.1 | –
298.15 K, 14000 kPa, w1 = 0.49 | 847.1 ± 1 | –
298.15 K, 14000 kPa, w1 = 0.5 | 849.5 ± 1 | –
298.15 K, 14000 kPa, w1 = 0.51 | 851.5 ± 1 | –
298.15 K, 14000 kPa, w1 = 0.52 | 853.5 ± 1 | –
298.15 K, 14000 kPa, w2 = 0.5 | 849.5 ± 1 | –
298.15 K, 16000 kPa, w1 = 0.48 | 845.7 ± 1.1 | –
298.15 K, 16000 kPa, w1 = 0.49 | 848.3 ± 1.1 | –
298.15 K, 16000 kPa, w1 = 0.5 | 850.7 ± 1.1 | –
298.15 K, 16000 kPa, w1 = 0.51 | 852.7 ± 1 | –
298.15 K, 16000 kPa, w1 = 0.52 | 854.6 ± 1 | –
298.15 K, 16000 kPa, w2 = 0.5 | 850.7 ± 1 | –
298.15 K, 18000 kPa, w1 = 0.48 | 846.9 ± 1.1 | –
298.15 K, 18000 kPa, w1 = 0.49 | 849.3 ± 1.1 | –
298.15 K, 18000 kPa, w1 = 0.5 | 851.9 ± 1.1 | –
298.15 K, 18000 kPa, w1 = 0.51 | 853.8 ± 1.1 | –
298.15 K, 18000 kPa, w1 = 0.52 | 855.7 ± 1.1 | –
298.15 K, 18000 kPa, w2 = 0.5 | 851.9 ± 1 | –
298.15 K, 20000 kPa, w1 = 0.48 | 848.1 ± 1.1 | –
298.15 K, 20000 kPa, w1 = 0.49 | 850.6 ± 1.1 | –
298.15 K, 20000 kPa, w1 = 0.5 | 853 ± 1.1 | –
298.15 K, 20000 kPa, w1 = 0.51 | 855 ± 1.1 | –
298.15 K, 20000 kPa, w1 = 0.52 | 857 ± 1.1 | –
298.15 K, 20000 kPa, w2 = 0.5 | 853 ± 1.1 | –
300.65 K, 100 kPa, w2 = 0.5 | 838.8 ± 1 | –
300.65 K, 2000 kPa, w2 = 0.5 | 840 ± 1 | –
300.65 K, 4000 kPa, w2 = 0.5 | 841.3 ± 1 | –
300.65 K, 6000 kPa, w2 = 0.5 | 842.5 ± 1 | –
300.65 K, 8000 kPa, w2 = 0.5 | 843.8 ± 1 | –
300.65 K, 10000 kPa, w2 = 0.5 | 845 ± 1 | –
300.65 K, 12000 kPa, w2 = 0.5 | 846.3 ± 1 | –
300.65 K, 14000 kPa, w2 = 0.5 | 847.5 ± 1 | –
300.65 K, 16000 kPa, w2 = 0.5 | 848.8 ± 1 | –
300.65 K, 18000 kPa, w2 = 0.5 | 849.9 ± 1 | –
300.65 K, 20000 kPa, w2 = 0.5 | 851 ± 1.1 | –
303.15 K, 100 kPa, w2 = 0.5 | 837.3 ± 1 | –
303.15 K, 2000 kPa, w2 = 0.5 | 838.5 ± 1 | –
303.15 K, 4000 kPa, w2 = 0.5 | 839.9 ± 1 | –
303.15 K, 6000 kPa, w2 = 0.5 | 841.1 ± 1 | –
303.15 K, 8000 kPa, w2 = 0.5 | 842.4 ± 1 | –
303.15 K, 10000 kPa, w2 = 0.5 | 843.6 ± 1 | –
303.15 K, 12000 kPa, w2 = 0.5 | 844.9 ± 1 | –
303.15 K, 14000 kPa, w2 = 0.5 | 846.1 ± 1 | –
303.15 K, 16000 kPa, w2 = 0.5 | 847.5 ± 1 | –
303.15 K, 18000 kPa, w2 = 0.5 | 848.7 ± 1 | –
303.15 K, 20000 kPa, w2 = 0.5 | 849.8 ± 1.1 | –
